Assay results published in patent EP1101496A1, “THERAPEUTIC AGENTS FOR ALLERGIC DISEASES” (FUJI YAKUHIN KOGYO KABUSHIKI KAISHA, priority 1998, dated 2000).

Legend:
[1] = tested on: infiltration of leukocytes into an air pouch; assay: Allergic inflammation model (air pouch model); type: in vivo, rats; conditions: 10 mg/kg or 30 mg/kg into the air pouch or intraperitoneally; 8 hours after the second challenge; dexamethasone 0.1 mg/kg as comparison
Method: Compound No. 8 was dissolved in physiological saline to make the final concentration 2.5 mg/mL (equal to 10 mg/kg) or 7.5 mg/mL (equal to 30 mg/kg) and administered into an air pouch of animals or intraperitoneally at a dose of 4 mL/kg. Dexamethasone was also dissolved in physiological saline to make the final concentration 25 µg/mL (equal to 0.1 mg/kg) and administered into an air pouch of animals at a dose of 4 mL/kg. Administration into such an air pouch was conducted simultaneously with the second challenge while the intraperitoneal administration was 30 minutes prior to the second challenge. Acetylated bovine serum albumin diazo-coupled with arsanilic acid (ABA-AcBSA) was prepared according to the Ouchi et al. and Tabachnick et al. methods as disclosed in Ouchi et al., "Seibutsu Yakukagaku Jikken Koza, Ensho To Allergy (Inflammation and Allergy) I-2", pp.194 to 206, Hirokawa Publishing Co., Japan and Tabachnick et al., The Journal of Biological Chemistry, 234: 1726- 1730, 1959, and mixed with a Freund's complete adjuvant (Difco) at an equal ratio. The mixture was treated using a connection-type glass syringe to form an emulsion which was used as a sensitizing solution. […] The retrieved exudates were measured by a dye-exclusion method using a haematocytometer and the number of exudated leukocytes were counted.

[2] = tested on: Type IV Allergic Dermatitis; assay: Type IV allergic dermatitis (oxazolone-induced auricle edema); type: in vivo, Mice (male, Balb/c)
Method: Mice (male, Balb/c, 6 weeks old, 20 to 25 g) were sensitized by painting a 3% solution of oxazolone (100 µL) abdominally. Six days after sensitization, a 0.5% solution of oxazolone in acetone was painted on both sides of a right ear at a dose of 10 µL to raise auricle edema. An untreated group was painted with the solvent (acetone) alone onto both sides of a left ear of the same mouse at 10 µL. At 24 hours after edema-induction, each mouse was sacrificed with ether and an equivalent each of right and left auricles was stamped out with a puncher (diameter: 6 mm). Both left and right auricle sections were measure for their weight and each percent edema was calculated (Kazuo Ouchi (Ed.), "Seibutsu Yakukagaku Jikken Koza, Ensho To Allergy (Inflammation and Allergy) I-1", 1993, Hirokawa Publishing Co., Japan) Percent Edema (%) =((Right Auricular Segment Weight - Left Auricular Segment Weight))/(Left Auricular Segment Weight)× 100 [formula]
A solution of a test metalloproteinase inhibitor (Compound No. 8, 50 mg/mL) in ethanol was painted onto both sides of a right auricle at 10 µL per side twice, i.e., 0.5 hr prior to edema-induction and 6 hours after edema-induction. The solvent (ethanol) alone was painted on a left auricle at the same dose ([…]). […]

Which results are given for `CNC(=O)[C@H](Cc1ccc(NC(=N)N)cc1)NC(=O)[C@H](CC(C)C)C(CCCc1ccccc1)C(=O)NO` (single isomer, unassigned) [Compound No. 8, N-[4-(N-hydroxyamino)-2(R)-isobutyl-3(R or S)-(3-phenyltrimethylene)succinyl]-L-4'-guanidophenylalanine-N-methylamide 1 acetate]?
infiltration of leukocytes into an air pouch (FIG. 13) [1]: significantly inhibited; therapeutic potency on the development of auricle edemas (FIG. 12) ([2]; 50 mg/mL in ethanol, 10 µL per side painted on right auricle 0.5 hr prior to and 6 hours after edema-induction, 24 hours after induction): amelioration of auricle edemas; effect of the compound alone on auricles (unsensitized group, FIG. 12) ([2]; unsensitized mice, 50 mg/mL in ethanol painted on auricle): almost free of swelling and/or thinning
